From patent publication US20240002442A1, “CYCLIC PEPTIDES WITH ANTIMICROBIAL PROPERTIES” (priority 2020, published 2024)
Values joined by “and” are separate entries in the source; they are usually repeats but may differ in a detail not shown here. Equal values may be shown once. Read-outs that look alike come from different tables or passages of the source.

Tests used:
[1] = test system: Escherichia coli ATCC 25922
[2] = test system: Bacteroides fragilis KLE 2244
[3] = test system: Bacteroides stercoris KLE 2537
[4] = test system: Yersinia pseudotuberculosis ATCC 6904
[5] = test system: Burkholderia cenocepacia ATCC BAA-245
[6] = test system: Klebsiella pneumoniae AR347
[7] = test system: Veillonella ratti KLE 2365
[8] = test system: Salmonella enterica Enteritidis AR496
[9] = test system: Enterobacter cloaceae ATCC 13047
[10] = test system: Escherichia coli K-12 MG1655
[11] = test system: Pseudomonas aeruginosa PA14
[12] = test system: Shigella sonnei ATCC 25931
[13] = test system: Moraxella catarrhalis ATCC 25248
[14] = test system: Salmonella enterica typhimurium LT2A TCC 19585
[15] = test system: Acinetobacter baumannii ATCC 19606
[16] = test system: Limosilactobaccilus reuteri LTH5448
[17] = test system: Clostridium bifermentans KLE 2329
[18] = test system: Vibrio vulnificus KLE δ-1125
[19] = test system: Photorhabdus australis DSM 17609
[20] = test system: Staphylococcus aureus HG003
[21] = test system: Pseudomonas aeruginosa PA01

## CC(C)C(NC(=O)C1NC(=O)C(CO)NC(=O)C(CC(N)=O)NC(=O)C(N)Cc2c[nH]c3cc(ccc23)C1C(N)=O)C(=O)NC1Cc2cn(cn2)C(c2ccc(O)cc2)C(C(=O)NC(CCCNC(=N)N)C(=O)NC(Cc2ccccc2)C(=O)O)NC(=O)C(CO)NC1=O (stereo not shown) [Formula (I)]
[1]
  MIC: 8 µg/mL
[2]
  MIC: >128 µg/mL
[3]
  MIC: >128 µg/mL
[4]; ATCC 6904
  MIC: 8 µg/mL
[5]
  MIC: >1000 µg/mL
[6]
  MIC: 64 µg/mL
[7]
  MIC: 16 µg/mL
Escherichia coli AR350
  MIC: 8 µg/mL
[8]
  MIC: 8 µg/mL
Proteus mirabilis BB2000; Proteus mirabilis BB2000
  MIC: 125 µg/mL
[9]
  MIC: 16 µg/mL
Bacillus subtilis 168; Bacillus subtilis 168
  MIC: >1000 µg/mL
Escherichia coli MG1655; Escherichia coli MG1655
  MIC: 16 µg/mL
[10]
  MIC: 16 µg/mL
[11]; Pseudomonas aeruginosa PA14
  MIC: 16 µg/mL
[12]
  MIC: 4 µg/mL
[13]
  MIC: 2 µg/mL
[14]
  MIC: 8 µg/mL
[15]; Acinetobacter baumannii ATCC 19606
  MIC: 16 µg/mL
[16]
  MIC: >128 µg/mL
[17]
  MIC: >128 µg/mL
[18]
  MIC: 8 µg/mL
[19]; Photorhabdus australis DSM 17609 (producer strain; listed twice)
  MIC: 250 µg/mL and >128 µg/mL
[20]; Staphylococcus aureus HG003
  MIC: >1000 µg/mL
[21]; Pseudomonas aeruginosa PA01
  MIC: 8 µg/mL
Proteus mirabilis H14320; Proteus mirabilis H14320
  MIC: 64 µg/mL

## CC(C)C(NC(=O)C1NC(=O)C(CO)NC(=O)C(CC(N)=O)NC(=O)C(NC(=O)C(CO)NC(=O)C2CCCN2)Cc2c[nH]c3cc(ccc23)C1C(N)=O)C(=O)NC1Cc2cn(cn2)C(c2ccc(O)cc2)C(C(=O)NC(CCCNC(=N)N)C(=O)NC(Cc2ccccc2)C(=O)O)NC(=O)C(CO)NC1=O (stereo not shown) [Formula (III)]
[4]; Yersinia pseudotuberculosis ATCC 6904
  MIC: 16 µg/mL
[5]
  MIC: >1000 µg/mL
[6]
  MIC: 125 µg/mL
Escherichia coli AR350
  MIC: 16 µg/mL
[8]
  MIC: 32 µg/mL
Proteus mirabilis BB2000; BB2000
  MIC: 64 µg/mL
Bacillus subtilis 168; 168
  MIC: >1000 µg/mL
Escherichia coli MG1655; MG1655
  MIC: 8 µg/mL
[11]; PA14
  MIC: 32 µg/mL
[15]; ATCC 19606
  MIC: 8 µg/mL
[19]; DSM 17609
  MIC: 500 µg/mL
[20]; HG003
  MIC: >1000 µg/mL
[21]
  MIC: 16 µg/mL
Proteus mirabilis H14320; H14320
  MIC: 32 µg/mL
